Data as given in patent US20260069606A1, “Oxidative Stress and Diabetes Treatment with Cobinamide” (The Regents of the University of California, priority 2022, published 2026).
Where “and” joins values, the source holds several entries; their conditions need not be identical. Identical values can stand only once. Like-named read-outs stand apart in the source and are kept apart here.

How the values were obtained:
[1] = tested on: H9c2 rat embryonal cardiomyocytes; assay: Mitochondrial superoxide content, MitoSOX Red fluorescence; type: cell-based; conditions: H9c2, 5 μM rotenone 30 min, drugs at 2.5 μM
Experimental: (§1) FIGS. 3A-3H. […] FIGS. 3A-3B. […] FIG. 3A. […] FIG. 3B. […] FIGS. 3C-3D. […] FIG. 3D. […] FIGS. 3E-3F. […] FIG. 3E. Representative blots are shown. […] FIG. 3F. […] FIG. 3G. […] FIG. 3H.
H9c2 cells were plated on glass cover slips in 24 well dishes, and 16 h later the medium was changed to phenol red-free DMEM supplemented with 20 mM Hepes, 0.1% fetal bovine serum, and 0.5% bovine serum albumin. […] MitoSOX Red is a dihydroethidium derivative containing triphenyl-phosphonium, which localizes it to respiring mitochondria. Its reaction with O2·^− yields 2-hydroxy-mitoethidium (2-OH-Mito-E″), whereas its reaction with other oxidative species yields mitoethidium (Mito-E^+)^67. These two oxidative derivatives have overlapping fluorescence spectra, but they can be distinguished by high performance liquid chromatography (HPLC)^68. Rotenone increased 2-OH-Mito-E^+ about two-fold, without increasing Mito-E^+. Thus, any increased fluorescence observed on treating cells with rotenone could be ascribed to an increase in 2-OH-Mito-E^+, and decreased fluorescence by an anti-oxidant in rotenone-treated cells was likely from a decrease in 2-OH-Mito-E^+.
(§2) The cells were then washed once with PBS, placed back in the DMEM experimental medium, and incubated with the indicated drugs for 30 min. At the end of the incubation period, nuclei of both the MitoSOX Red- and JC-1-treated cells were stained with […] 4′,6-diamidino-2-phenyl-indole (DAPI) for 3 min, washed once with PBS, and returned to the DMEM experimental medium. The cover slips were removed from the wells, mounted in the DMEM experimental medium, and red (MitoSOX Red and JC-1 aggregates), green (JC-1 monomers), and blue (DAPI) fluorescence intensity was assessed using a Keyence BZ-X700 fluorescence microscope at the following paired excitation/emission wavelengths, respectively: 560/630, 490/525, and 360/460 nm.
To assess if cobinamide reduces oxidative stress in cells and to compare its […] efficacy to that of cobalamin, imisopasem, and MnTBAP, several sets of experiments were performed. First, whether cobinamide reduces mitochondrial-generated O2·^− was evaluated using the fluorescent probe MitoSOX Red. H9c2 rat embryonal cardiomyocytes were treated with rotenone, an inhibitor of complex I, to increase mitochondrial O2·^−. […] Monitoring the UV-visible spectrum of cobinamide is a sensitive means to assess ligand binding^38.

H9c2 cells = assay: Mitochondrial membrane potential, JC-1 red to green fluorescence; type: cell-based, rat; conditions: H9c2, 5 μM rotenone 30 min, drugs at 2.5 μM
Experimental: as §1, §2
Increased mitochondrial O2·^− by rotenone would be expected to reduce the mitochondrial membrane potential (ΔΨm), due in part to activation of uncoupling proteins^39. […] Rotenone caused an almost complete loss of red fluorescence and a striking increase in green fluorescence in the cells, indicating a marked decrease in ΔΨm (FIGS. 3C-3D).

[2] = tested on: Jun N-terminal kinase (JNK) phosphorylation in H9c2 cells; assay: H2O2-induced JNK phosphorylation, immunoblotting; type: cell-based, rat; conditions: for JNK phosphorylation in H2O2-treated cells: H9c2, 100 μM H2O2 30 min, drugs at 100 μM
Description: as §1

COS-7 cells = tested on: COS-7 cells
Experimental: as §1
Finally, whether cobinamide could alleviate the effects of oxidative stress induced by yet another mechanism in a different cell type was tested using paraquat-treated COS-7 cells. Paraquat generates O2·^− through a redox cycling mechanism and increases both intracellular O2·^− and H2O2^42.

D. melanogaster = assay: Survival of fruit flies during paraquat poisoning; type: in vivo
Experimental: The number of live flies was counted each day for 7 d. The experiment was repeated seven times, for a total of 70 flies per condition. The percent surviving flies was calculated; error bars represent standard deviations and are shown in one direction only for sake of clarity. […] Chi, cobinamide in Panel A and histidyl-cobinamide in Panels B-K; Imp, imisopasem; MnTP, MnTBAP; CbL, cobalamin; DNPH, 2,4-dinitrophenylhydrazine; ND, non-diabetic; D, diabetic; Veh, vehicle.
To test cobinamide in a whole animal, D. melanogaster was selected for initial studies, and oxidative stressed was increased in the files by administering paraquat in their food. Cobinamide was again compared to imisopasem, MnTBAP, and hydroxocobalamin, all administered in food.

[3] = second order; literature values; cited from earlier work
[4] = literature values; not strictly comparable with third-order constants; cited from earlier work
[5] = second order; literature values; cited from earlier work; remark: listed apart in the source
[6] = literature values, cited from earlier work; for Rate constant, reaction with nitric oxide (·NO), published: second order
[7] = Reaction with superoxide, hypoxanthine-xanthine oxidase-cytochrome c reduction system; type: biochemical; conditions: for Apparent rate constant, reaction with superoxide (O2·^−): second order, hypoxanthine-xanthine oxidase-cytochrome c system, new data of this study
Experimental: FIGS. 1A-1G. Cobinamide Functions as a Superoxide Dismutase Mimetic. FIGS. 1A-1B. Chemical structures of aquohydroxo-cobinamide (FIG. 1A) and hydroxo-cobalamin (FIG. 1B). FIGS. 1C, 1E. Increasing concentrations of Chi(III) (FIG. 1C) or Chi(II) (FIG. 1E) were incubated in a hypoxanthine-xanthine oxidase-cytochrome c-catalase system for measuring O2·^−, with the change in absorbance at 550 nm (ΔAbs) plotted versus time. A no substrate (no hypoxanthine) control was included. FIGS. 1D, 1F. The calculated rate of change of absorbance at 550 nm in the absence of Chi(III) or Chi(II) (Vo) divided by the calculated rate in their presence (v) is plotted against the Chi(III) (FIG. 1D) or Chi(II) (FIG. 1F) concentration, respectively. The slope of the fitted line was used to calculate the apparent rate constant according to the following equation: kCbi=slope×kcytochrome c×[cytochrome c], where kcytochrome c=1.4×10^6 M^−1 s^−1 and [cytochrome c]=70 μM^70. The data shown are the mean of duplicate samples from one experiment, with similar results found in two additional experiments. Dotted lines show 95% confidence intervals. FIG. 1G. A 20 μM solution of Chi(III) in DMSO was scanned from 280 to 600 nm yielding the spectrum shown as a black line. An equimolar amount of […] (KO2) dissolved in dimethyl sulfoxide (DMSO) was added and the solution was scanned immediately, yielding the grey line. […] The experiment was conducted three times with identical results.
(§3) Table I. Reaction Rates of Cobinamide (Cbi), Cobalamin, Imisopasem, and MnTBAP with Reactive Oxygen and Nitrogen Species. Reactions of the indicated compounds with O2·^−, ONOO^−, and ·NO are all second order reactions with rate constants in units of M^−1 s^−1. The reactions of Cbi(III) and Cbi(II) with H2O2 are third order with rate constant units of M^−2 s^−1. Chi(II) and cobalamin(II) bind nitric oxide, so a Ka is shown in units of M^−1. For the new data presented in this study, rate constants were measured for O2·^− using a hypoxanthine-xanthine oxidase-cytochrome c system, for H2O2 using a H2O2-specific sensor (World Precision Instruments), and for ONOO^− using a stopped-flow instrument. Published rate constants for Cu/Zn and Mn superoxide dismutases (SOD) and catalase are shown for reference.^a,b Letters and numbers in parenthesis refer to footnotes and references, respectively.
The reaction of cobinamide with O2·^− was studied in two different systems, generating O2·^− using a hypoxanthine-xanthine oxidase system.
The first system contained 100 μM hypoxanthine and 0.1 unit xanthine oxidase in 20 mM sodium phosphate buffer, pH 7.1. The amount of O2·^− was measured by following reduction of ferric-cytochrome c (70 μM) at 550 nm as described previously^65. Catalase was included (32 units per sample), because xanthine oxidase generates both O2·^− and H2O2, and the latter can re-oxidize the ferro-cytochrome c product^34,66. The reaction was followed for 10 min. A no substrate blank lacking hypoxanthine was included.
In both systems, the experiments were conducted in the absence and presence of the indicated concentrations of Cbi(III) or Chi(II) 65.
Catalase was included in the reaction mixture, because the hypoxanthine-xanthine oxidase system also generates H2O2 and the latter can oxidize the ferro-cytochrome c product back to ferric-cytochrome c, thereby interfering with the kinetic measurement^34.

[8] = Reaction with hydrogen peroxide, H2O2-specific electrode; type: biochemical
Experimental: (§4) FIGS. 2A-2F. Cobinamide Functions as a Catalase Mimetic and Reacts with Peroxynitrite. […]. Hydrogen peroxide (final concentration 50 μM) was added to solutions containing increasing concentrations of Chi(III) (FIG. 2A) or Chi(II) (FIG. 2C), and the H2O2 concentration was measured over time using a H2O2-specific electrode. The log of the velocity in the presence of Chi(III) (FIG. 2B) or Chi(II) (v) (FIG. 2D) over the velocity in their absence (Vo) is plotted against the log of their concentrations at 20 min over their concentrations at zero time. These plots yield a reaction order with respect to Chi(III) and Cbi(II) of 0.7. The experiments were repeated three times with similar results. Dotted lines show 95% confidence intervals. FIG. 2E. […] The Chi(III) spectra are slightly different from those shown in FIG. 1G because at pH 11, dihydroxo-cobinamide is generated, whereas at pH 7.1, aquohydroxo-cobinamide is the predominant species. The spectra of aquohydroxo- and dihydroxo-cobinamide are known to be different^65. FIG. 2F. Varying concentrations of Chi(II) from 1 to 10 μM were mixed with 10 μM peroxynitrite in a stopped-flow instrument, and absorption at 315 nm was monitored for 0.5 sec. The results for 5 μM Cbi(II) are shown; red circles are the observed data, and the black line is a two-phase non-linear regression curve generated by Prism 7.04 software. […] The experiment was repeated three times with similar results. Dotted lines show 95% confidence intervals.
as §3
Both Cbi(III) and Chi(II) react with H2O2, and the reaction was essentially first order with respect to Cbi(III) and Cbi(II) (FIG. 2A-D), and second order with respect to H2O2 for both cobinamide species. […]

[9] = Reaction with peroxynitrite, stopped-flow; type: biochemical
Experimental: as §4
as §3, with “Chi(II) and cobalamin(II) bind nitric oxide, so a Ka is shown in units of M^−1.” left out, “Published rate constants for Cu/Zn and Mn superoxide dismutases (SOD) and catalase are shown for reference.^a,b Letters and numbers in parenthesis refer to footnotes and references, respectively.” left out

[10] = even on exposure to air
Experimental: H9c2 cells were incubated for 30 min with vehicle, 2.5 μM cobinamide, or 5 μM rotenone, the latter in the absence or presence of 2.5 μM cobinamide, imisopasem, MnTBAP, or cobalamin; 5 μM MitoSOX was added during the last 10 min. The cells were incubated with 1 mg/ml DAPI for 3 min to counterstain nuclei, and then visualized under a fluorescence microscope. […] Equal-sized representative areas for each condition are shown for MitoSOX staining (red fluorescence) and the same area showing merged MitoSOX and DAPI staining. […] The amount of red fluorescence was quantified by Image J analysis. Data are the mean±SD of three independent experiments; in each experiment two separate equal-sized areas were analyzed containing ˜75 cells per area. […] H9c2 cells were incubated for 10 min with 10 μM JC-1, washed once with PBS, and then incubated for 30 min with vehicle, 2.5 μM cobinamide, or 5 μM rotenone in the absence or presence of 2.5 μM of the indicated drugs as described in Panels A, B. FIG. 3C. Cells were visualized under a fluorescence microscope and equal-sized representative areas of each condition are shown, with red and green fluorescence shown for the same area. […] The amount of red and green fluorescence was quantified by Image J analysis and the red to green ratio was calculated. The slides were analyzed by an operator who was blinded to the specific conditions. Data are the mean±SD of three independent experiments; in each experiment two separate equal-sized areas were analyzed containing ˜75 cells per area. […] Blots from four independent experiments were analyzed by densitometric scanning (Li-Cor Odyssey software) in a range where band intensity was linear. The ratio of the pJNK band to GAPDH was calculated, and the results normalized to control untreated cells. […] The UV-visible spectrum of Chi(III) in 50 mM potassium phosphate buffer, pH 7.4 was recorded before (black line) and immediately after adding a three-fold molar excess of ascorbate (blue line), cysteine (teal line), or reduced glutathione (GSH, pink line). […]

## [Cl-].[Cl-].[Mn+2].c1cc2nc(c1)CN[C@@H]1CCCC[C@H]1NCCN[C@@H]1CCCC[C@H]1NC2 [Imisopasem, imisopasem manganese]
[1]
  MitoSOX red fluorescence in rotenone-treated cells: reduced the fluorescent signal substantially
H9c2 cells
  JC-1 red to green fluorescence ratio (ΔΨm) in rotenone-treated cells: modest degrees of recovery
[2]
  JNK phosphorylation in H2O2-treated cells: small non-significant effects
COS-7 cells; COS-7, 1 mM paraquat 3 h, 100 μM drug, counted 48 h later
  Effect on cell growth of paraquat-treated cells: neither imisopasem nor MnTBAP had an effect
D. melanogaster; 20 mM paraquat with 0.8 mM drug in food, over 7 d
  Effect on mortality of paraquat-exposed flies: no significant effect
[3]
  Rate constant, reaction with superoxide (O2·^−), published: 1.6e+07 M⁻¹ s⁻¹
[4]
  Rate constant, reaction with hydrogen peroxide (H2O2), published: 8.2
[5]
  Rate constant, reaction with peroxynitrite (ONOO^−), published: No activity (26)
[6]
  Rate constant, reaction with nitric oxide (·NO), published: No activity (26)

## C/C1=C2/[N-][C@H]([C@H](CC(N)=O)[C@@]2(C)CCC(=O)NC[C@@H](C)O)[C@]2(C)N=C(/C(C)=C3N=C(/C=C4N=C1[C@@H](CCC(N)=O)C\4(C)C)[C@@H](CCC(N)=O)[C@]\3(C)CC(N)=O)[C@@H](CCC(N)=O)[C@]2(C)CC(N)=O.[Co] [Cbi(II)]
[7]; hypoxanthine-xanthine oxidase-cytochrome c reduction system, catalase included, exponent shared in the sentence
  Apparent rate constants, reaction with O2·^−: 1.92e+08 M⁻¹ s⁻¹
[7]
  Apparent rate constant, reaction with superoxide (O2·^−): 1.9e+08 M⁻¹ s⁻¹
[8]; 50 μM H2O2
  Reaction order with respect to the cobinamide species in the reaction with H2O2: 0.7
[8]; third order, H2O2-specific sensor, new data of this study
  Apparent rate constant, reaction with hydrogen peroxide (H2O2): 3.7 × 10^4 M^−2 s^−1
[9]; compared with published MnTBAP value
  Fold higher ONOO^− rate constant than MnTBAP: > 50 fold
[9]; compared with published cobalamin(II) value
  Fold higher ONOO^− rate constant than cobalamin(II): more than 10 fold
[9]; second order, stopped-flow, 10 μM peroxynitrite, new data of this study
  Apparent rate constant, reaction with peroxynitrite (ONOO^−): 6.34×10^6 M^−1 s^−1 and 6.3 × 10^6 (^c) ^ M^−1 s^−1
[2]
  JNK phosphorylation in H2O2-treated cells: reduced JNK phosphorylation to a level that was indistinguishable from vehicle-treated cells
[2]; H9c2, drug alone
  JNK phosphorylation or total cellular JNK in the absence of H2O2: neither Cbi(III), Cbi(II) nor the other three drugs affected JNK phosphorylation
[10]
  Persistence of the reduced state: remains in the reduced state for several hours
[6]
  Ka, binding of nitric oxide (·NO), published: Ka: 1.3 × 10^10 (51) M^−1

## hydroxo-cobalamin
[7]
  Apparent rate constant, reaction with superoxide (O2·^−): 9.4e+06 M⁻¹ s⁻¹
[1]
  MitoSOX red fluorescence in rotenone-treated cells: reduced the fluorescent signal substantially
H9c2 cells
  JC-1 red to green fluorescence ratio (ΔΨm) in rotenone-treated cells: modest degrees of recovery
[2]
  JNK phosphorylation in H2O2-treated cells: no effect
COS-7 cells
  Effect on cell growth of paraquat-treated cells: improved cell growth
D. melanogaster; in vivo
  Effect on mortality of paraquat-exposed flies: no significant effect
[4]
  Rate constant, reaction with hydrogen peroxide (H2O2), published: 4.5 × 10^6
[6]
  Rate constant, reaction with nitric oxide (·NO), published: No activity (51, 71)
